According to patent US20230042830A1, “COMPOSITIONS AND METHODS FOR GENERATION OF RETINAL GANGLION CELLS FROM INDUCIBLE PLURIPOTENT STEM CELLS FOR THE TREATMENT OF PROGRESSIVE OPTIC NEUROPATHIES, INCLUDING GLAUCOMA” (THE TRUSTEES OF THE UNIVERSITY OF PENNSYLVANIA, priority 2021, published 2023):

Experiments:
sonic hedgehog = test: RGC induction with SHH or SAG; type: cell-based, human; conditions: 100 nM, day 22-23
Experimental: Prior to RGC differentiation, medium was changed daily using RGC induction media containing SHH (sonic hedgehog) (250 ng/mL; R&D systems) or SAG (100 nM; Tocris), SHH was replaced with SAG after establishing equal competence, FGF8 (100 ng/mL, R&D systems) for two days. For RGC differentiation (see FIGS. 1D and 2B for kinetics), on day 24, cells were manually crossed into small clusters with Leibovitz's medium containing […] Glucose using the crosshatching technique as previously described (Espuny-Camacho et al., 2013), then replated at a density of 1.0×10^5 cells/well of 6-well plate coated with 1:100 diluted growth factor reduced Matrigel in RGCs induction media containing: Follistatin 300 (100 ng/ml), cyclopamine (0.5 uM, Tocris), DAPT (3 uM, Tocris), and 4.2 μM Rock inhibitor (Y27632). Media was changed 24 h post-plating with RGC induction media containing: Follistatin 300 (100 ng/ml) and DAPT (3 uM), daily for two days. From day 27, media was changed to RGC induction media containing: DAPT (3 uM, Tocris), 10 μM Rock inhibitor (Y27632), forskolin (5 uM; SelleckChem), cAMP (400 uM; Sigma-Aldrich), BDNF (40 ng/mL; R&D systems), NT4 (5 ng/mL; R&D systems), and CNTF (10 ng/mL; R&D systems). Media was changed every 2-3 days until day 36. […]

iPSC-RGC cultures = test: Flow cytometry analysis of iPSC-RGC cultures (CD90/Thy-1, Brn-3b, RBPMS, SNCG); type: cell-based, human; conditions: flow cytometry after 35 days in vitro, three independent iPSC lines
Experimental: iPSCs were cultured on 0.1% gelatinized plates containing iMEFs in 37° C. 5% O2 and 5% CO2 conditions. Cells were maintained until approximately 75% confluence, then feeder cells were depleted and approximately 1.5×10^6 iPSCs were seeded in one well of 6-well tissue culture dish (Corning) coated with 1:100 diluted growth factor reduced Matrigel. iPSCs were maintained in iPSC: MEF-conditioned medium (80:20)+20 ng/mL of bFGF and 5 ng/ml of stable bFGF. The MEF-conditioned media was prepared by plating iMEFs onto 0.1% gelatin at a density of 20,000 cells/cm^2 in iPSC media. […] On day 16 of differentiation, seven conditions—1) L, 2) X, 3) 1.5 μM CHIR99021 (CHIR) (Wnt agonist; SelleckChem), 4) LX, 5) LSB, 6) LSB-CHIR and 7) LSBX were evaluated for RPC and RGC markers on day 23. Cultures from the following four conditions—1) LSBX, 2) LSB, 3) LX, and 4) 1.5 μM CHIR99021 (CHIR) (Wnt agonist; SelleckChem) were further evaluated at 35. An additional five conditions—1) L only, 2) X only, 3) LSB, 4) LSBX, and 5) LSB-CHIR were evaluated for RPC markers on day 23 to evaluate for transcript expression differences across different conditions in RPCs. […]

SIRT1 pathway = conditions: mouse models of optic neuritis and optic nerve trauma; cited from earlier work

In the case of `CNC1CCC(N(Cc2cccc(-c3ccncc3)c2)C(=O)c2sc3ccccc3c2Cl)CC1` (stereo not drawn) [SAG], the “RGC induction compared with SHH” value (sonic hedgehog) is reported as “no difference in RGC induction changes”.
With `Cc1c[nH]c(-c2cnc(NCCNc3ccc(C#N)cn3)nc2-c2ccc(Cl)cc2Cl)n1` [CHIR, CHIR99021] the “Thy-1 (CD90) positive cells” value (iPSC-RGC cultures) was 22.5%.
For `Oc1ccc(C=Cc2cc(O)cc(O)c2)cc1` [resveratrol], the “visual function and RGC survival” value (SIRT1 pathway) is given as “preserves visual function and RGC survival”.
